Assay results: publication PMC5138414, “Structural Basis for Redox Regulation of Cytoplasmic and Chloroplastic Triosephosphate Isomerases from Arabidopsis thaliana” (Frontiers in Plant Science, 2016)

Assays:
Assay in all cases: residual activity after MMTS incubation, coupled assay at […] nm
Format in all cases: biochemical
cTPI [1] = biological target: T1, cTPI (Arabidopsis thaliana, UniProt P48491); settings: covalent (C13, C218); 3 h incubation at room temperature, 0.184 nM enzyme, TEA pH 7.4, 10 mM EDTA
T1 construct: gene CTIMC; homodimer

pdTPI [2] = biological target: T2, pdTPI (Arabidopsis thaliana, UniProt Q9SKP6); settings: read-out: 50% of enzymatic activity
T2 construct: gene TIM; homodimer
Target sequence in this assay (Q9SKP6 60-315): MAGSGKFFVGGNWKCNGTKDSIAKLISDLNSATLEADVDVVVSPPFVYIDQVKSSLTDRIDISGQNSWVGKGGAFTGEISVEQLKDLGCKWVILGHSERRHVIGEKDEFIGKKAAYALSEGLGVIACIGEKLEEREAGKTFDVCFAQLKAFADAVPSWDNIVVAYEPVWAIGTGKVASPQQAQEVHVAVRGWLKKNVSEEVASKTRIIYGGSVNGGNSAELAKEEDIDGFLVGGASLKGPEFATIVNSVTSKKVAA

cTPI [3] = biological target: T3, cTPI (Arabidopsis thaliana, UniProt P48491, C218S); settings: read-out: MMTS concentration necessary to inhibit 50%
T3 construct: gene CTIMC; homodimer
T3 sequence (P48491 1-254 C218S): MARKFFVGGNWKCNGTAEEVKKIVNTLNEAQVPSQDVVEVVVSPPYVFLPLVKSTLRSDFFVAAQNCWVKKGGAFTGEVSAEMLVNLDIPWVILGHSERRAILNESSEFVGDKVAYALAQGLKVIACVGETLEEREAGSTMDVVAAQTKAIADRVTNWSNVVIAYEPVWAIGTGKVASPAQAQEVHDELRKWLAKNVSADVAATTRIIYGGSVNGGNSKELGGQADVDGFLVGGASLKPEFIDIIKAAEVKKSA

cTPI [4] = biological target: T4, cTPI (Arabidopsis thaliana, UniProt P48491, C13S)
T4 construct: gene CTIMC; homodimer

pdTPI [5] = biological target: T2, pdTPI; settings: covalent (cysteine); 3 h incubation at room temperature, 0.184 nM enzyme, TEA pH 7.4, 10 mM EDTA; MMTS 0-50 µM
Target sequence in this assay (Q9SKP6 60-315 C148S): as the sequence (Q9SKP6 60-315) above, with C89S counted along it

T1 sequence (P48491 whole entry): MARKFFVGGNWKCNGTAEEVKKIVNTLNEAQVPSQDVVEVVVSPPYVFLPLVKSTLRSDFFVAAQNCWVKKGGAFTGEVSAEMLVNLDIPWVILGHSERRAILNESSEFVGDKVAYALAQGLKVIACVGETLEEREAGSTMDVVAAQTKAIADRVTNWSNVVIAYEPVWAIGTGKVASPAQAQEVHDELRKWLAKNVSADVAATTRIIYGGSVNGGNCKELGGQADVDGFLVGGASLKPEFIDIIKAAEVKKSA
T4 sequence (P48491 whole entry C13S): as the sequence (P48491 whole entry) above, with C13S counted along it

## CSS(C)(=O)=O [MMTS]
cTPI [1]
  % decrease of activity at 31.25 nM: 90%
pdTPI [2]
  IC50: > 10 µM
cTPI [3]
  IC50: 0.125 µM
cTPI [4]
  remaining activity at 0.125 µM: 70%
pdTPI [5]
  % activity remaining (dose curve): Mutation pdTPI-C89S is more susceptible to MMTS inhibition
